Assay results taken from US20230416786A1, “USE OF AMINOQUINOLINE COMPOUNDS FOR HIGHER GENE INTEGRATION” (CELLECTIS SA, priority 2020, published 2023).
Counter-ions that a name gives are not always drawn. Like-named read-outs stand apart in the source and are kept apart here.

What was measured:
HSCs = experiment: Targeted integration of HLA-E repair template at the B2M locus in HSCs (B2M TALEN + AAV-HLA-E, flow cytometry of HLA-E positive cells); assay type: cell-based, human
Description: (§1) The targeted sequences are […]gctcgcgctactc[…]
For HSCs, AAV-HLA-E particles was thawed on ice and aliquot to transduce each of the HSC samples at 10^4 viral genome per cell (vg/cell).

primary T-cells = conditions: Example 3, FIG. 3, TRAC TALEN + AAV-CAR-MESO, without chloroquine 29%
Description: as §1

## CCN(CCO)CCCC(C)Nc1ccnc2cc(Cl)ccc12 (centres unmarked) [hydroxychloroquine, 7-Chloro-4-[4-(N-ethyl-N-b-hydroxyethylamino)-1-methylbutylamino]quinoline sulfate]
HSCs; Example 5, FIG. 5, B2M TALEN + AAV-HLA-E, compound 0.02 mM, without any compound 33.3%
  percentage of HLA-E positive cells: 43.4%

## CCN(CC)CCCC(C)Nc1ccnc2cc(Cl)ccc12 (centres unmarked) [chloroquine, N4-(7-chloroquinolin-4-yl)-N1,N1-diethylpentane-1,4-diamine diphosphate]
Primary T-cells; chloroquine 0.05 mM
  CAR positive cells (nuclease-induced targeted integration at TRAC locus): 35%
Primary T-cells; second chloroquine concentration (0.1 mM per first sentence)
  CAR positive cells (nuclease-induced targeted integration at TRAC locus): 33.8%
HSCs; Example 2, FIG. 2, B2M TALEN with HLA-E repair matrix, chloroquine 0.1 mM, without chloroquine 23.4%
  HLA-E expression (reflects targeted integration at the B2M locus): ~38%
HSCs; Example 4, FIG. 4, B2M TALEN + AAV-HLA-E
  optimum CQ dose for HLA-E positive cells: 0.02 nM
HSCs; Example 6, FIG. 6E, B2M TALEN + i53 mRNAs (inhibition of 53BP1) + AAV-HLA-E combined with chloroquine 0.02 mM, control 31.5%
  percentage of HLA-E positive cells: 63.6%
HSCs; Example 6, FIGS. 6B and 6C, B2M TALEN + AAV-HLA-E, without 53BP1 inhibition, chloroquine 0.02 mM, without any compound 31.5%
  percentage of HLA-E positive cells: 53.4%

## i53: mRNAs encoding i53 (SEQ ID NO. 40), a 53BP1 inhibitor, co-electroporated with B2M TALEN
HSCs; Example 6, FIGS. 6B and 6D, B2M TALEN + 4 μg/million cells mRNAs encoding i53 + AAV-HLA-E, without chloroquine, control 31.5%
  percentage of HLA-E positive cells: 39.9%
